Source: publication PMC12154426, “TPP-Based Nanovesicles Kill MDR Neuroblastoma Cells and Induce Moderate ROS Increase, While Exerting Low Toxicity Towards Primary Cell Cultures: An In Vitro Study” (International Journal of Molecular Sciences, 2025)
Like-named read-outs stand apart in the source and are kept apart here.

Columns and labels:
Assay type in all cases: cell-based, human
HTLA 230 = assay: MTS cell viability assay on HTLA 230 NB cells; conditions: for cytotoxic effects vs. HTLA 230 higher than vs. HTLA ER: from IC50 values
Protocol: (§1) In this section, the strong anticancer effect of BPPB against ETO-sensitive HTLA 230 and multidrug-resistant (MDR) HTLA ER neuroblastoma (NB) cells previously reported was confirmed. Cell viability in HTLA 230 and HTLA ER cells exposed to increasing concentrations of BPPB for 24, 48, and 72 h was assessed by using the MTS essay, which is an efficient, eco- and user-friendly tool, commonly used to investigate the behaviour of cancer cells when exposed to specific treatments and how these treatments influence their growth and viability.
(§2) Following this, µM concentrations (x) were transformed in Log10 (x) (Figure 1e (HTLA 230) and Figure 1f (HTLA ER), traces with indicators and error bar). The nonlinear regression models of the Log10 (BPPB concentrations) vs. the normalized response (Hill Slope) shown in Figure 1e (HTLA 230) and Figure 1f (HTLA ER), traces without indicators, elaborated by GraphPad Prism software version 8.0.1 (GraphPad Software, Boston, MA, USA), gave us the IC50 values of BPPB for both cell populations at 24, 48, and 72 h of treatment.
(§3) HTLA 230 is a MYCN-amplified human stage-IV NB cell line, obtained from the G. Gaslini Institute, Genoa, Italy. The cytogenetic features of the HTLA 230 cell line include […] MYCN amplification, del(11)t(11;Y), balanced translocation t(1;17)(p36;q21), and dup(11p), which were previously described by Pezzolo et al.. Cells were periodically tested for mycoplasma contamination (Mycoplasma Reagent Set, Aurogene s.p.a, Pavia, Italy). After thawing and eight passages in the culture, cell morphology and proliferation were analyzed. […] Both cell populations were cultured in RPMI 1640 (Euroclone SpA, Pavia, Italy) supplemented with 10% fetal bovine serum (FBS; Euroclone, Pavia, Italy), 2 mM glutamine (Euroclone, Pavia, Italy), 1% penicillin/streptomycin (Euroclone, Pavia, Italy), 1% sodium pyruvate (Sigma-Aldrich, Sant Louis, MO, USA), and 1% amino acid solution (Sigma).
(§4) To determine the cytotoxic effects of BPPB, in vitro time- and dose-dependent experiments were carried out, as recently described. Briefly, cells were treated for 24, 48, and 72 h, with increasing concentrations (0.1–2.0 µM) of the compound. […] Cell cultures were carefully monitored before and during the experiments to ensure optimal cell density.
(§5) Cell viability was determined by using the CellTiter 96® AQueous One Solution Cell Proliferation MTS Assay (Promega, Madison, WI, USA), as previously described. MTS is a colorimetric method commonly used for determining cell viability. The cell survival rate, expressed as the cell viability percentage (%), was evaluated based on the experimental outputs of treated cells vs. the untreated ones (CTRs), and was calculated as follows: cell viability (%) = (OD treated cells − OD blank)/(OD untreated cells − OD blank) × 100%. IC50 values were calculated by GraphPad Prism 8.0.1 Software (GraphPad Software v8.0, San Diego, CA, USA), as detailed in the Results and Discussion in Section 2.

HTLA ER [1] = assay: MTS cell viability assay on HTLA ER NB cells; conditions: for HTLA ER more tolerant to BPPB than HTLA 230: from IC50
Protocol: as §1, §2, §3, §4, §5

HTLA ER [2] = assay: DAPI and Annexin-V/PI staining (necrosis/apoptosis), HTLA ER; conditions: 24 h
Excerpt: Although it has been reported that diverse therapeutic approaches to counteract cancer, including chemotherapeutic drugs, gamma irradiation, suicide genes, or immunotherapy, are mediated through the induction of apoptosis, also necrosis, as well as other forms of cell death, that are not classified so far, may be triggered by anticancer therapies. Here, to evaluate if BPPB induced apoptosis or necrosis, both NB cell populations were labelled with Annexin-V-FITC/propidium iodide (PI) and analysed by confocal fluorescence microscopy, as reported in the literature. This is a standard procedure to monitor the progression of apoptosis and the possible presence of necrosis. […]
After the treatment, cells were washed with PBS and stained with the fluorescent DNA dye DAPI (1 µg/mL) for 30 min. After additional washing, the images were immediately acquired in the fluorescence mode using a Nikon AX R confocal microscope equipped with a PLAN APO 20× (Nikon Europe, B.V., Amstelveen, The Netherlands).
Apoptotic and necrotic cells were analysed, as described in Marengo et al.. […] After staining, the images were immediately acquired in fluorescence mode using a Nikon AX R confocal microscope equipped with a PLAN APO 20× (Nikon Europe, B.V., Amstelveen, The Netherlands).

Molecule c1ccc([P+](CCCCCCCCCCCC[P+](c2ccccc2)(c2ccccc2)c2ccccc2)(c2ccccc2)c2ccccc2)cc1 [BPPB, 1,1-(1,12-dodecanediyl)-bis-[1,1,1]-triphenyl phosphonium di-bromide] has a cell viability (HTLA 230; 0.25 µM, 72 h) of 47.6%, a cell viability (HTLA 230; 0.5 µM, 48 h) of 41.8% and a cell viability (HTLA 230; 0.75 µM, 24 h) of 42.5%. The “concentration causing significant reduction in cells' viability” value (HTLA 230; 24 h) was at least 0.5 µM, the cell viability (HTLA 230; 24 h, concentrations ≥ 0.75 µM up to 2 µM) was 39.3–45.3% and the “cytotoxic effects vs. HTLA 230 higher than vs. HTLA ER” value (HTLA 230; 24 h) was 25.3%. The IC50 (HTLA 230; 24 h exposure, 0.1–2 µM, read-out: IC50 HTLA 230) was 0.926 ± 0.164 µM, the “concentration causing significant reduction in cells' viability” value (HTLA 230; 48 h) was at least 0.1 µM and the cell viability (HTLA 230; 48 h, concentrations ≥ 0.5 µM up to 2 µM) was 36.2–41.9%. For the same molecule, the “cytotoxic effects vs. HTLA 230 higher than vs. HTLA ER” value (HTLA 230; 48 h) was 65.9%, the IC50 (HTLA 230; 48 h exposure, 0.1–2 µM, read-out: IC50 HTLA 230) was 0.462 ± 0.103 µM and the “concentration causing significant reduction in cells' viability” value (HTLA 230; 72 h) was at least 0.25 µM. For the same molecule, the “cytotoxic effects vs. HTLA 230 higher than vs. HTLA ER” value (HTLA 230; 72 h) was 67.5%, the cell viability (HTLA 230; 72 h, lowest value reached with increasing concentrations (up to 2 µM)) was 21.7% and the IC50 (HTLA 230; 72 h exposure, 0.1–2 µM, read-out: IC50 HTLA 230) was 0.389 ± 0.0836 µM. The “more cytotoxic than TiO2-Ta nanoparticles” value (HTLA 230; HTLA 230 and HTLA ER vs. SH-SY5Y, 24 h) was 64–86 fold, the “anticancer effects higher than compound 3 with PDT/SDT” value (HTLA 230; HTLA 230 and HTLA ER, 24 h) was 10.3–14.7 times and the “more potent than Ag20Pep” value (HTLA 230; HTLA 230 and HTLA ER, 24 h) was 105–143 times. For the same molecule, the “more potent than Ag40Pep” value (HTLA 230; HTLA 230 and HTLA ER, 24 h) was 132–182 times, the “more potent than Ag20Pep” value (HTLA 230; HTLA 230 and HTLA ER, 48 h) was 18–54 times and the “more potent than Ag40Pep” value (HTLA 230; HTLA 230 and HTLA ER, 48 h) was 29–90 times. The “cytotoxicity higher than that of compounds 9–13 of Skrzypczak et al.” value (HTLA 230; HTLA 230 and HTLA ER, 72 h) was 1.7–5.1 fold, the “more cytotoxic than AgNPs” value (HTLA 230; HTLA 230 and HTLA ER, 72 h) was 4–30 times and the IC50 (HTLA 230; over 24, 48, 72 h exposure, read-out: IC50 values towards drug-sensitive HTLA 230) was 0.4 to 0.9 µM. For the same molecule, the cell viability (HTLA ER [1]; 1.25 µM, 24 h) was 42.5%, the cell viability (HTLA ER [1]; 1.25 µM, 72 h) was 39.8% and the cell viability (HTLA ER [1]; 1.5 µM, 48 h) was 39.4%. For the same molecule, the cell viability (HTLA ER [1]; 2 µM, 24 h) was 26.5%, the cell viability (HTLA ER [1]; 2 µM, 48 h) was 33.1% and the cell viability (HTLA ER [1]; 2 µM, 72 h) was 25.8%. For the same molecule, the “concentration causing significant reduction in viability of cells” value (HTLA ER [1]; 24 h) was at least 0.75 µM, the “HTLA ER more tolerant to BPPB than HTLA 230” value (shortened to “HTLA ER more tolerant”) (HTLA ER [1]; 24 h) was 1.3 times and the IC50 (HTLA ER [1]; 24 h exposure, 0.1–2 µM, read-out: IC50 HTLA ER) was 1.24 ± 0.061 µM. For the same molecule, the “concentration causing significant reduction in viability of cells” value (HTLA ER [1]; 48 h) was at least 0.75 µM, the “HTLA ER more tolerant” value (HTLA ER [1]; 48 h) was 2.9 times and the IC50 (HTLA ER [1]; 48 h exposure, 0.1–2 µM, read-out: IC50 HTLA ER) was 1.35 ± 0.052 µM. The “concentration causing significant reduction in viability of cells” value (HTLA ER [1]; 72 h) was at least 1.00 µM, the “HTLA ER more tolerant” value (HTLA ER [1]; 72 h) was 3.1 times and the IC50 (HTLA ER [1]; 72 h exposure, 0.1–2 µM, read-out: IC50 HTLA ER) was 1.2 ± 0.0695 µM. For the same molecule, the “IC50 lower than that determined with ETO” value (HTLA ER [1]; HTLA ER, 24 h, ETO value ref 16) was 478 fold, the IC50 (HTLA ER [1]; over 24, 48, 72 h exposure, read-out: IC50 on MDR HTLA ER) was 1.2 to 1.35 µM and the “apoptosis (Annexin V-FITC / PI labelling)” value (HTLA ER [2]; 1 µM) was “marked apoptosis”. For the same molecule, the “necrosis (DAPI labelling)” value (HTLA ER [2]; 1.0 µM) was “did not induce the necrosis”.
